Among the data in patent US10787444B2, “Compounds for the modulation of myc activity” (Syros Pharmaceuticals, Inc., priority 2015, dated 2020) are IC50 values, retold here.

Experiment [1] has as its target T1, c-Myc/Max/Ebox DNA (Homo sapiens, UniProt P01106).
T1 construct: his6 (cleaved yes)
Briefly: c-Myc/Max/Ebox DNA AlphaScreen Assay. It counts as binding. As to conditions: calculated IC50 class. As for the experimental part:
Compounds of the invention were assayed for c-Myc/Max/EBox activity as described in the following protocol. Human his6-c-Myc and his6-Max were used with biotinylated DNA containing a single Ebox sequence (biotin[…]) purchased from MWG Operon. Free c-Myc was generated from his6-c-Myc through thrombin cleavage of the his6 tag. For 384-well plate assays, 10 μL of a 2× solution of free c-Myc (20 nM final), Ni^2+ coated Acceptor Beads (25 μg/ml final), and biotinylated Ebox oligo (10 nM final) were added to 384-well plates with a Biotek EL406 liquid handler. 50 nL of compounds from stock plates were added by pin transfer using a Janus Workstation (PerkinElmer), allowing the compounds to interact with c-Myc prior to c-Myc binding with Max. In the current assay, DMSO was not allowed to exceed 2% v/v of the assay. 10 μl of 2× master mix containing streptavidin-coated donor beads (25 μg/ml final) and his6-Max (5 nM) were added. AlphaScreen measurements were performed on an Envision plate reader (PerkinElmer) utilizing the manufacturer's protocol.
Both master mixes were made in room temperature assay buffer (50 mM HEPES, 150 mM NaCl, 0.2% w/v BSA, 0.02% w/v Tween20, 40 μg/ml glycogen, 500 μM DTT, pH 8.0, wherein both DTT and glycogen were added fresh). Alpha beads were added to respective master solutions. All subsequent steps were performed in low light conditions. Solution 1:2× solution of components with final concentrations of c-Myc Ni-coated Acceptor Beads (25 μg/ml), and biotinylated Ebox oligo (10 nM). Solution 2:2× solution of streptavidin-coated donor beads (25 μg/ml final) and his6-Max 10 μL. […] 50 nL of compounds from stock plates were added by pin transfer using a Janus Workstation. Solution 2 (10 μl) was added with the liquid handler. Plates were sealed with foil to block light exposure and prevent evaporation. Plates were very briefly centrifuged followed by 2 hour incubation. […] Excitation was at 680 nm for donor bead release of singlet oxygen and emission was read with a bandpass filter from 520-620 nm.

Experiment [2] deals with human small lung cancer cell line H2171. Briefly: Cell Viability Assay (ATPlite). It counts as cell-based. As to conditions: H2171 cells, three days, ATPlite, calculated IC50 class, read-out: H2171 Activity. The procedure:
Compounds of the invention were assayed for cell viability using the human small lung cancer cell line H2171 as described in the following protocol. Cells were counted and adjusted to 20,000 cells/mL. Using a Biotek EL406, 50 μL of cells in media were distributed into 384 well white plates from Thermo. Immediately after plating, compound in DMSO was distributed to plates. Compounds were added to plates using a 50 nL 384 well pin transfer manifold on a Janus workstation. Stocks were arrayed in 10 point dose response in DMSO stock in 384 well Greiner compound plates. After the addition of compounds, plates were incubated for three days in a 37° C. incubator. Cell viability was read out using ATPlite from Perkin Elmer. Lyophilized powder was resuspended in lysis buffer and diluted 1:2 with deionized water. 25 μL of this solution was added to each well using the Biotek liquid handler. Plates were incubated for 15 minutes at room temperature before signal was read on an Envision Plate Reader. The data from this assay are summarized in Tables 2 and 3 below (H2171 activity).

[3] abbreviates: Homo sapiens, NCI-H2171, 72 h, Table 2, compounds of FIG. 1.

Where a name gives a salt, the structure may show the parent alone. Read-outs that look alike come from different tables or passages of the source. Bounds are passed on as bounds.

T1 sequence (P01106 whole entry): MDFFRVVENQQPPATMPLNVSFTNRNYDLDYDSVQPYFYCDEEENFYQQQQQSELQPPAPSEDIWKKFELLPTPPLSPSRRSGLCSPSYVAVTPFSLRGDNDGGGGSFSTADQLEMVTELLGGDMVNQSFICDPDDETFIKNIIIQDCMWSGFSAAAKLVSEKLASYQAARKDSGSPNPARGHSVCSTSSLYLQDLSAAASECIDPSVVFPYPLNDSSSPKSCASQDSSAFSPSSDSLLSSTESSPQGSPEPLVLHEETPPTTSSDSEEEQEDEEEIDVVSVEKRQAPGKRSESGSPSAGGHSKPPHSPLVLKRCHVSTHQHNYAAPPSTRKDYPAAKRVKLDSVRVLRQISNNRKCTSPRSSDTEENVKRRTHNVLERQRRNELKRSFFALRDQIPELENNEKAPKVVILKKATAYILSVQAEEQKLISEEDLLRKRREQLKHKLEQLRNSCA

As to “3-(Azetidin-1-yl)-N-(3-(benzo[d]thiazol-2-yl)-6-isopropyl-4,5,6,7-tetrahydrothieno[2,3-c]pyridin-2-yl)propanamide [Compound 541]”, the IC50 in experiment [1] (Table 2, compounds of FIG. 1) is 300 to 1000 nM; in experiment [2] (Table 2, compounds of FIG. 1) it was 1000 to 10000 nM.
Consider `CC(=O)Nc1sc2c(c1-c1nc3ccccc3s1)C[C@@H](C)N[C@H]2C` (relative stereo) [Compound 206, N-(3-(benzo[d]thiazol-2-yl)-cis-5,7-dimethyl-4,5,6,7-tetrahydrothieno[2,3-c]pyridin-2-yl)acetamide], for which the IC50 in experiment [1] (Table 3, compounds of FIG. 2) is 1000 to 10000 nM; in experiment [2] (Table 3, compounds of FIG. 2), 1000 to 10000 nM.
On to `CC(C)NCCC(=O)Nc1sc2c(c1-c1nc3ccccc3s1)CC(C)NC2C` (single isomer, unassigned) [Compound 195, N-(3-(benzo[d]thiazol-2-yl)-5,7-dimethyl-4,5,6,7-tetrahydrothieno[2,3-c]pyridin-2-yl)-3-(isopropylamino)propanamide], for which the IC50 in experiment [1] (Table 2, compounds of FIG. 1) is under 300 nM; in experiment [2] (Table 2, compounds of FIG. 1), under 300 nM.
As for `CC(C)NCCC(=O)Nc1sc2c(c1-c1nc3ccccc3s1)CC(C)NC2C` (single isomer, unassigned) [Compound 196, N-(3-(benzo[d]thiazol-2-yl)-5,7-dimethyl-4,5,6,7-tetrahydrothieno[2,3-c]pyridin-2-yl)-3-(isopropylamino)propanamide], the IC50 in experiment [1] (Table 2, compounds of FIG. 1) was 300 to 1000 nM; in experiment [2] (setting [3]), under 300 nM.
As for `CC(C)NCCC(=O)Nc1sc2c(c1-c1nc3ccccc3s1)CC(C)NC2C` (single isomer, unassigned) [Compound 197, N-(3-(benzo[d]thiazol-2-yl)-5,7-dimethyl-4,5,6,7-tetrahydrothieno[2,3-c]pyridin-2-yl)-3-(isopropylamino)propanamide], the IC50 in experiment [1] (Table 2, compounds of FIG. 1) is 1000 to 10000 nM; in experiment [2] (Table 2, compounds of FIG. 1), 300 to 1000 nM.
In the case of `CC(C)NCCC(=O)Nc1sc2c(c1-c1nc3ccccc3s1)CC(C)NC2C` (single isomer, unassigned) [Compound 198, N-(3-(benzo[d]thiazol-2-yl)-5,7-dimethyl-4,5,6,7-tetrahydrothieno[2,3-c]pyridin-2-yl)-3-(isopropylamino)propanamide], the IC50 in experiment [1] (Table 2, compounds of FIG. 1) is 1000 to 10000 nM; in experiment [2] (Table 2, compounds of FIG. 1) it was under 300 nM.
`COCCNCCC(=O)Nc1sc2c(c1-c1nc3ccccc3s1)CC(C)NC2C` (single isomer, unassigned) [Compound 508, N-(3-(Benzo[d]thiazol-2-yl)-5,7-dimethyl-4,5,6,7-tetrahydrothieno[2,3-c]pyridin-2-yl)-3-((2-methoxyethyl)amino)propanamide]: the IC50 is 1000 to 10000 nM in experiment [1] (Table 2, compounds of FIG. 1) and under 300 nM in experiment [2] (setting [3]).
As to `COCCNCCC(=O)Nc1sc2c(c1-c1nc3ccccc3s1)CC(C)NC2C` (single isomer, unassigned) [Compound 509, N-(3-(Benzo[d]thiazol-2-yl)-5,7-dimethyl-4,5,6,7-tetrahydrothieno[2,3-c]pyridin-2-yl)-3-((2-methoxyethyl)amino)propanamide], the IC50 was 1000 to 10000 nM in experiment [1] (Table 2, compounds of FIG. 1) and under 300 nM in experiment [2] (Table 2, compounds of FIG. 1).
Regarding `COCCNCCC(=O)Nc1sc2c(c1-c1nc3ccc(-c4ccncc4)cc3s1)CC(C)NC2C` (single isomer, unassigned) [Compound 517, N-(5,7-Dimethyl-3-(6-(pyridin-4-yl)benzo[d]thiazol-2-yl)-4,5,6,7-tetrahydrothieno[2,3-c]pyridin-2-yl)-3-((2-methoxyethyl)amino)propanamide], the IC50 in experiment [1] (Table 2, compounds of FIG. 1) was under 300 nM; in experiment [2] (setting [3]), under 300 nM.
On to `COCCNCCC(=O)Nc1sc2c(c1-c1nc3ccc(-c4cccnc4)cc3s1)CC(C)NC2C` (single isomer, unassigned) [Compound 519, N-(5,7-Dimethyl-3-(6-(pyridin-3-yl)benzo[d]thiazol-2-yl)-4,5,6,7-tetrahydrothieno[2,3-c]pyridin-2-yl)-3-((2-methoxyethyl)amino)propanamide], for which the IC50 is under 300 nM in experiment [1] (Table 2, compounds of FIG. 1) and under 300 nM in experiment [2] (setting [3]).
`COCCNCCC(=O)Nc1sc2c(c1-c1nc3ccc(-c4cccnc4)cc3s1)CC(C)NC2C` (single isomer, unassigned) [Compound 520, N-(5,7-Dimethyl-3-(6-(pyridin-3-yl)benzo[d]thiazol-2-yl)-4,5,6,7-tetrahydrothieno[2,3-c]pyridin-2-yl)-3-((2-methoxyethyl)amino)propanamide]: the IC50 is 1000 to 10000 nM in experiment [1] (Table 2, compounds of FIG. 1) and 300 to 1000 nM in experiment [2] (Table 2, compounds of FIG. 1).
As for `COCCNCCC(=O)Nc1sc2c(c1-c1nc3cc(-c4ccncc4)ccc3s1)CC(C)NC2C` (single isomer, unassigned) [Compound 521, N-(5,7-dimethyl-3-(5-(pyridin-4-yl)benzo[d]thiazol-2-yl)-4,5,6,7-tetrahydrothieno[2,3-c]pyridin-2-yl)-3-((2-methoxyethyl)amino)propanamide], the IC50 in experiment [1] (Table 2, compounds of FIG. 1) is under 300 nM; in experiment [2] (setting [3]), under 300 nM.
In the case of `COCCNCCC(=O)Nc1sc2c(c1-c1nc3cc(-c4ccncc4)ccc3s1)CC(C)NC2C` (single isomer, unassigned) [Compound 522, N-(5,7-dimethyl-3-(5-(pyridin-4-yl)benzo[d]thiazol-2-yl)-4,5,6,7-tetrahydrothieno[2,3-c]pyridin-2-yl)-3-((2-methoxyethyl)amino)propanamide], the IC50 in experiment [1] (Table 2, compounds of FIG. 1) was under 300 nM; in experiment [2] (Table 2, compounds of FIG. 1) it was under 300 nM.
For `CCC(C)NCCC(=O)Nc1sc2c(c1-c1nc3cc(Br)ccc3s1)CCN(C(C)C)C2` (stereo not drawn) [Compound 145, N-(3-(5-Bromobenzo[d]thiazol-2-yl)-6-isopropyl-4,5,6,7-tetrahydrothieno[2,3-c]pyridin-2-yl)-3-(sec-butylamino)propanamide], the IC50 in experiment [2] (Table 2, compounds of FIG. 1) was 300 to 1000 nM.
For `CCC(C)NCCC(=O)Nc1sc2c(c1-c1nc3cc(C(F)(F)F)ccc3s1)CCN(C(C)C)C2` (stereo not drawn) [Compound 146, 3-(sec-butylamino)-N-(6-isopropyl-3-(5-(trifluoromethyl)benzo[d]thiazol-2-yl)-4,5,6,7-tetrahydrothieno[2,3-c]pyridin-2-yl)propanamide], the IC50 in experiment [2] (Table 2, compounds of FIG. 1) was under 300 nM.
On to `CCOC(=O)CNCCC(=O)Nc1sc2c(c1-c1nc3ccccc3s1)CCNC2` [Compound 148, Ethyl (3-((3-(benzo[d]thiazol-2-yl)-4,5,6,7-tetrahydrothieno[2,3-c]pyridin-2-yl)amino)-3-oxopropyl)glycinate hydrochloride], for which, in experiment [2] (setting [3]), the IC50 was over 10000 nM.
For the molecule `CCC(C)NCCC(=O)Nc1sc2c(c1-c1nc3cc(I)ccc3s1)CCN(C(C)C)C2` (stereo not drawn) [Compound 162, 3-(sec-butylamino)-N-(3-(5-iodobenzo[d]thiazol-2-yl)-6-isopropyl-4,5,6,7-tetrahydrothieno[2,3-c]pyridin-2-yl)propanamide dihydrochloride], in experiment [2] (setting [3]), the IC50 is 1000 to 10000 nM.
Regarding `CC(C)N1CCc2c(sc(NC(=O)CCNC3CCCC3)c2-c2nc3ccccc3s2)C1` [Compound 542, N-(3-(Benzo[d]thiazol-2-yl)-6-isopropyl-4,5,6,7-tetrahydrothieno[2,3-c]pyridin-2-yl)-3-(cyclopentylamino)propanamide], the IC50 in experiment [2] (setting [3]) was under 300 nM; in experiment [2] (Table 2, compounds of FIG. 1, listed as 111) it was 1000 to 10000 nM.
With `CCC(C)NCCC(=O)Nc1sc2c(c1-c1nc3ccccc3s1)CCNC2` (stereo not drawn) [Compound 607, N-(3-(benzo[d]thiazol-2-yl)-4,5,6,7-tetrahydrothieno[2,3-c]pyridin-2-yl)-3-(sec-butylamino)propanamide], the IC50 in experiment [2] (Table 2, compounds of FIG. 1) was under 300 nM.
